Experiments:
human P2X3 receptor [1] = biological target: T1, human P2X3 receptor (Homo sapiens (Human), UniProt P56373); test: Evaluation of human P2X3 receptor inhibitory activity (FLIPR Ca fluorescence, ATP-evoked); assay type: cell-based; settings: C6BU-1 cells stably expressing human P2X3 receptor
Description: Stably expressing cell line (C6BU-1 cell transfected with human P2X3 receptor gene (GenBank accession number Y07683) was used. The cells were seeded in a 384-well PDL-coated microtiter plate at a concentration of 3000 cells/well and cultured in the medium (8.3% fetal bovine serum, 8.3% horse serum, and 1% antibiotic and antifungal in DMEM) for one day at 37° C. under 5% carbon dioxide atmosphere. The medium was replaced with 4 μM Fluo-3-AM solution (20 mM HEPES, 137 mM NaCl, 2.7 mM KCl, 0.9 mM MgCl2, 5.0 mM CaCl2, 5.6 mM D-glucose, 2.5 mM probenecid, 0.5% BSA, and 0.04% Pluronic P-127, pH 7.5) and incubated at 37° C. under 5% dioxide carbon atmosphere for one hour. The plate was washed with washing buffer (20 mM HEPES, 137 mM NaCl, 2.7 mM KCl, 0.9 mM MgCl2, 5.0 mM CaCl2, 5.6 mM D-glucose, 2.5 mM probenecid, pH 7.5), and each well was added with 20 μL of the washing buffer. The plate was placed in High-Throughput Screening System FLIPR 384 (Molecular Device Co.). Measurement of fluorescence intensity by […] was started, and 20 μL of DMSO solutions containing different concentrations of the test compound as prepared by dilution with dilution buffer (20 mM HEPES, 137 mM NaCl, 2.7 mM KCl, 0.9 mM MgCl2, 5.0 mM CaCl2, 5.6 mM D-glucose, 2.5 mM probenecid, 0.1% Pluronic F-127, pH 7.5) were dispensed to each well through the built-in automatic dispenser. Five minutes after, 150 nM ATP solution (25 μL) prepared by dilution with the dilution buffer was dispensed through the built-in automatic dispenser, and the measurement of fluorescence intensity was continued for 4 min. For each well, the specific maximum fluorescence intensity was calculated as the ratio of the maximum fluorescence intensity after addition of the ATP solution to the fluorescence intensity at the starting of the measurement. […] The specific maximum fluorescence intensify and IC50 were calculated using Spotfire (Science & Technology Systems. Inc.)

human P2X3 receptor [2] = biological target: T1, human P2X3 receptor; test: Evaluation of human P2X3 receptor inhibitory activity in the presence of human serum albumin (HSA); assay type: cell-based; settings: in the presence of 1% HSA (final concentration)
Description: Stably expressing cell line (C6BU-1 cell transfected with human P2X3 receptor gene (GenBank accession number Y07683; was used. The cells were seeded in a 96-well microtiter plate at a concentration of 8000 cells/well and cultured in the medium (7.0% fetal bovine serum, 7.0% horse serum, 1% antibiotic and antifungal, and 2.0% glutamine in DMEM) for one day at 37° C. under 5% carbon dioxide atmosphere. The medium was replaced with 4 μM Fluo-3-AM solution (20 mM HEPES, 137 mM NaCl, 5.37 mM KCl, 0.9 mM MgCl2, 1.26 mM CaCl2, 5.6 mM D-glucose, 2.5 mM probenecid, 0.5% BSA, and 0.04% Pluronic F-127, pH 7.5) and incubated at 37° C. under 5% dioxide carbon atmosphere for one hour. The plate was washed with washing buffer (20 mM HEPES, 137 mM NaCl, 5.27 mM KCl, 0.9 mM MgCl2, 1.26 mM CaCl2, 5.6 mM D-glucose, 2.5 mM probenecid, pH 7.5), and each well was added with 40 μL of this buffer. The plate was placed in High-Throughput Screening System FDSS 3000 (Hamamatsu Photonics K.K.). Measurement of fluorescence intensity by FDSS 3000 was started, and 40 μL of DMSO solutions containing 1% HSA (final concentrations) different concentrations of the test compound as prepared by dilution with dilution buffer (20 mM HEPES, 137 mM NaCl, 5.27 mM KCl, 0.9 mM MgCl2, 1.26 mM CaCl2, 5.6 mM D-glucose, 2.5 mM probenecid, 0.1% Pluronic F-127, pH 7.5) were dispensed to each well through the built-in automatic dispenser. Five minutes after, 50 nM ATP solution (50 μL) prepared by dilution with the dilution buffer was dispensed through the built-in automatic dispenser, and the measurement of fluorescence intensity was continued for 4 min. For each well, the specific maximum fluorescence intensity was calculated as the ratio of the maximum fluorescence intensity after addition of the ATP solution to the fluorescence intensity at the starting of the measurement. […] FDSS software (Hamamatsu Photonics K.K.) was used for calculation of the specific maximum fluorescence intensity. IC50 was calculated using Microsoft Excel (Microsoft Corporation) and XLfit (idbs Ltd.)

[3] = Solubility test (1% DMSO, artificial intestinal juice pH 6.8); assay type: physicochemical; settings: artificial intestinal juice pH 6.8 with 1% DMSO, 25 °C, fassgf or other biorelevant, kinetic from dmso stock, artificial intestinal juice pH 6.8, 25 degrees Celsius, read-out: Solubulity
Description: The solubility of a compound was determined under a condition in which 1% DMSO was added. 10 mmol/L compound solution was prepared using DMSO, and then 2 μL of the compound solution was added to 198 μL of artificial intestinal juice in pH 6.8 (to 250 mL of 0.2 mol/L potassium dihydrogen phosphate reagent solution was added 118 mL of 0.2 mol/L NaOH reagent solution and water to provide a final volume of 1000 mL). After standing at 25 degrees Celsius for 18 hours, the mixed solution was filtrated with suction. The filtrate was diluted twice with methanol/water (1/1), and then a concentration in the filtration was measured with HPLC or LC/MS/MS by the absolute calibration method.

Rat P2X3 receptor = Rat P2X3 receptor (Rattus norvegicus (Rat), UniProt P49654); test: Evaluation of rat P2X3 receptor inhibitory activity in the presence of rat serum albumin (RSA); assay type: cell-based; settings: read-out: ratP2X3 + RSA IC50
Chain of Rat P2X3 receptor (P49654 whole entry): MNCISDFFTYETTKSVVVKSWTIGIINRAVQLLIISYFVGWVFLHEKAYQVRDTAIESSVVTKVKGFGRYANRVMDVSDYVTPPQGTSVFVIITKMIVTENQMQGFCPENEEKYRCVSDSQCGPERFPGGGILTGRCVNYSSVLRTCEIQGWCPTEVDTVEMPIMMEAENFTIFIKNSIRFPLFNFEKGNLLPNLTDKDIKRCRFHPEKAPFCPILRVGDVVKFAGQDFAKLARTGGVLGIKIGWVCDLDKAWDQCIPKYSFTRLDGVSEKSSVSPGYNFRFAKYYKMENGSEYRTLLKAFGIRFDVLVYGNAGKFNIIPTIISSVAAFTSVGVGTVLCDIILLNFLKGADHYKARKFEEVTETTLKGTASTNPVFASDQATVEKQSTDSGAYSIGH
Description: Rat P2X3 receptor gene (GenBank accession number NM_031075) was expressed in C6BU-1 cell. The C6BU-1 cells were seeded in a 96-well micro titer plate at a concentration of 2500 cells/well and cultured in the medium (7.0% fetal bovine serum, 7.0% horse serum, and 1% antibiotic and antifungal in DMEM) for one day at 37° C. under 5% carbon dioxide atmosphere. The plasmid was transfected into the cells using transfection reagent FuGENE6 (Promega). The transfected cells were cultured in the medium for one day at 37° C. under 5% carbon dioxide atmosphere. The medium was replaced with 4 μM Fluo-4-AM solution (pH 7.5) containing 20 mM HEPES, 137 mM NaCl, 5.27 mM KCl, 0.9 mM MgCl2, 1.26 mM CaCl2, 5.6 mM D-glucose, 2.5 mM probenecid, 10% RSA, and 0.08% Pluronic F-127, and incubated at 37° C. under 5% dioxide carbon atmosphere for one hour. The plate was washed with washing buffer (20 mM HEPES, 137 mM NaCl, 5.27 mM KCl, 0.9 mM MgCl2, 1.26 mM CaCl2, 5.6 mM D-glucose, 2.5 mM probenecid, pH 7.5), and each well was added with 40 μL of this buffer. The plate was placed in High-Throughput Screening System FDSS 3000 (Hamamatsu Photonics K.K.). Measurement of fluorescence intensity by FDSS 3000 was started, and 40 μL of DMSO solutions containing 1% RSA (final concentrations) and different concentrations of the test compound as prepared by dilution with dilution buffer (20 mM HEPES, 137 mM NaCl, 5.27 mM KCl, 0.9 mM MgCl2, 1.26 mM CaCl2, 5.6 mM D-glucose, 2.5 mM probenecid, 0.1% Pluronic F-127, pH 7.5) were dispensed to each well through the built-in automatic dispenser. Five minutes after, 50 nM ATP solution (50 μL) prepared by dilution with the dilution buffer was dispensed through the built-in automatic dispenser, and the measurement of fluorescence intensity was continued for 4 min. For each well, the specific maximum fluorescence intensity was calculated as the ratio of the maximum fluorescence intensity after addition of the ATP solution to the fluorescence intensity at the starting of the measurement. […] FDSS software (Hamamatsu Photonics K.K.) was used for calculation of the specific maximum fluorescence intensity. IC50 was calculated using Microsoft Excel (Microsoft Corporation) and XLfit (idbs Ltd.).

CYP1A2 = CYP1A2 (Homo sapiens (Human), UniProt P05177); test: CYP inhibition test, CYP1A2; assay type: in vitro ADME; settings: pooled human hepatic microsome; 7-ethoxyresorufin-O-deethylation
Chain of CYP1A2 (P05177 whole entry): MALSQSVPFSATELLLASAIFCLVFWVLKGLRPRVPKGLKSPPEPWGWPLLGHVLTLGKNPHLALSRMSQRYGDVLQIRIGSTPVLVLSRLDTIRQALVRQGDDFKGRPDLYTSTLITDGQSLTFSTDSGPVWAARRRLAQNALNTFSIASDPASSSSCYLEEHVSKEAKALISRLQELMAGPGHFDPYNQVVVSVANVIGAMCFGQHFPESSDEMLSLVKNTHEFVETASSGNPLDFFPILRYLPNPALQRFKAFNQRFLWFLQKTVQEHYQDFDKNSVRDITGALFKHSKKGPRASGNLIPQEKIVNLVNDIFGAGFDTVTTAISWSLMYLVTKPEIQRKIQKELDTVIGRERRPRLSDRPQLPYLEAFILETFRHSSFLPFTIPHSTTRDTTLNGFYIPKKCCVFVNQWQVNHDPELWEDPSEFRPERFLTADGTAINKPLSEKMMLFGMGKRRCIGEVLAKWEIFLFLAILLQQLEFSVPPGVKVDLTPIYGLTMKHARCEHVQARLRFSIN
Description: (§1) Using commercially available pooled human hepatic microsome, and employing, as markers, 7-ethoxyresorufin-O-deethylation (CYP1A2), tolbutamide methyl-hydroxylation (CYP2C9), mephenytoin 4′-hydroxylation (CYP2C19), dextromethorphan O-demethylation (CYP2D6), and terfenedine hydroxylation as typical substrate metabolism reactions of human main five CYP enzyme forms (CYP1A2, 2C9, 2C19, 2D6, 3A4), an inhibitory degree of each metabolite production amount by a test compound was assessed.
(§2) The reaction conditions were as follows: substrate, 0.5 μmol/L ethoxyresorufin (CYP1A2), 100 μmol/L tolbutamide (CYP2C9), 50 μmol/L S-mephenitoin (CYP2C19), 5 μmol/L dextromethorphan (CYP2D6), 1 μmol/L terfenedine (CYP3A4); reaction time, 15 minutes; reaction temperature, 37° C. enzyme, pooled human hepatic microsome 0.2 mg protein/mL; test, drug concentration, 1.0, 5.0, 10, 20 μmol/L (four points).
(§3) Each five kinds of substrates, human hepatic microsome, or a test drug in 50 mmol/L Hepes buffer as a reaction solution was added to a […] at the composition as described above, NADPH, as a cofactor was added to initiate metabolism reactions as markers and, after the incubation at 37° C. for 15 minutes, a methanol/acetonitrile=1/1 (v/v) solution was added to stop the reaction. After the centrifugation at 3000 rpm for 15 minutes, resorufin (CYP1A2 metabolite) in the supernatant was quantified by a fluorescent multilabel counter and tributamide hydroxide (CYP2CP metabolite), mephenytoin 4′hydroxide (CYP2C19 metabolite), […] (CYP2D6 metabolite), and terfenadine alcohol (CYP3A4 metabolite) were quantified by LC/MS/MS.
(§4) Addition of only DMSO being a solvent dissolving a drug to a reaction system was adopted as a control (100%), remaining activity (%) was calculated at each concentration of a test drug added as the solution and IC50 was calculated by reverse presumption by a logistic model using a concentration and an inhibition rate.

CYP2C9 = CYP2C9 (Homo sapiens (Human), UniProt P11712); test: CYP inhibition test, CYP2C9; assay type: in vitro ADME; settings: pooled human hepatic microsome; tolbutamide methyl-hydroxylation
Chain of CYP2C9 (P11712 whole entry): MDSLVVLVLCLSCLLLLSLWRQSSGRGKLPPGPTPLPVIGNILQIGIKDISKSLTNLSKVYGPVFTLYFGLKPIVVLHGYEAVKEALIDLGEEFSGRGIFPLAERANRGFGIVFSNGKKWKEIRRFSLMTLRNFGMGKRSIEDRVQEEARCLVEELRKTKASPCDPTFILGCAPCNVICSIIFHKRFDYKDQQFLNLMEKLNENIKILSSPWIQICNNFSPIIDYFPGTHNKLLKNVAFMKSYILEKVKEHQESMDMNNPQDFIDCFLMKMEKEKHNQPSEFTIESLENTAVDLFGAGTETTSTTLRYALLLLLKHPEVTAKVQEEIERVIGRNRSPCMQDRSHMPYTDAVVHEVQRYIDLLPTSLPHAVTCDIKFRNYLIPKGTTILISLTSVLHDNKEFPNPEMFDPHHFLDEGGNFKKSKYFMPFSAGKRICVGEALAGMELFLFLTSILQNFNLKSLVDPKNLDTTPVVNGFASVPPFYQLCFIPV
Description: as §1, §2, §3, §4

CYP2C19 = CYP2C19 (Homo sapiens (Human), UniProt P33261); test: CYP inhibition test, CYP2C19; assay type: in vitro ADME; settings: pooled human hepatic microsome; mephenytoin 4′-hydroxylation
Chain of CYP2C19 (P33261 whole entry): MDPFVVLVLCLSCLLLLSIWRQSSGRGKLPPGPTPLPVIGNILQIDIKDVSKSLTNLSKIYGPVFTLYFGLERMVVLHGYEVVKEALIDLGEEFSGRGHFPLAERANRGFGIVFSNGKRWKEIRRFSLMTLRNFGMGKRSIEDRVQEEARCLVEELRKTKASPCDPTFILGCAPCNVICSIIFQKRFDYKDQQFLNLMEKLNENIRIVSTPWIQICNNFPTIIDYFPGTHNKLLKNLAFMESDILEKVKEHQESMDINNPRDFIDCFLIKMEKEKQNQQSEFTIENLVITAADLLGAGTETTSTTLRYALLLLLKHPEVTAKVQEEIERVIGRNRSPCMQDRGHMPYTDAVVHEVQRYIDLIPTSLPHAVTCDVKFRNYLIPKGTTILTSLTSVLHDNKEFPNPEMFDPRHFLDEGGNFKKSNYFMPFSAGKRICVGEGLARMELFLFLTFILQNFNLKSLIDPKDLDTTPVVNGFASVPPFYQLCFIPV
Description: as §1, §2, §3, §4

CYP2D6 = CYP2D6 (Homo sapiens (Human), UniProt P10635); test: CYP inhibition test, CYP2D6; assay type: in vitro ADME; settings: pooled human hepatic microsome; dextromethorphan O-demethylation
Chain of CYP2D6 (P10635 whole entry): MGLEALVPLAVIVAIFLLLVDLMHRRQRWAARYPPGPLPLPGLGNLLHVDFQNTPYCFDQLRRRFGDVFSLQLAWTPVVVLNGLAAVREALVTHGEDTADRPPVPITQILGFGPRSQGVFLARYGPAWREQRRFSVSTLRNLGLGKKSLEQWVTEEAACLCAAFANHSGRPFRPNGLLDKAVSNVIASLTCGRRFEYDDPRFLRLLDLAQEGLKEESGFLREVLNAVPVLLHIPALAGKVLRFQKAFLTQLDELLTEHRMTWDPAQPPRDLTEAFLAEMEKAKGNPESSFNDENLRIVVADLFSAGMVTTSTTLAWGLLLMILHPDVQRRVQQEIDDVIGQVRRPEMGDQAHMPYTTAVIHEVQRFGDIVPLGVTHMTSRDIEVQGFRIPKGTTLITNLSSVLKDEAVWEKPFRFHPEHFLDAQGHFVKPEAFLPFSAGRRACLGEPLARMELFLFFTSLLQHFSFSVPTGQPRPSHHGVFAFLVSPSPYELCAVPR
Description: as §1, §2, §3, §4

CYP3A4 = CYP3A4 (Homo sapiens (Human), UniProt P08684); test: CYP inhibition test, CYP3A4; assay type: in vitro ADME; settings: pooled human hepatic microsome; terfenedine hydroxylation
Chain of CYP3A4 (P08684 whole entry): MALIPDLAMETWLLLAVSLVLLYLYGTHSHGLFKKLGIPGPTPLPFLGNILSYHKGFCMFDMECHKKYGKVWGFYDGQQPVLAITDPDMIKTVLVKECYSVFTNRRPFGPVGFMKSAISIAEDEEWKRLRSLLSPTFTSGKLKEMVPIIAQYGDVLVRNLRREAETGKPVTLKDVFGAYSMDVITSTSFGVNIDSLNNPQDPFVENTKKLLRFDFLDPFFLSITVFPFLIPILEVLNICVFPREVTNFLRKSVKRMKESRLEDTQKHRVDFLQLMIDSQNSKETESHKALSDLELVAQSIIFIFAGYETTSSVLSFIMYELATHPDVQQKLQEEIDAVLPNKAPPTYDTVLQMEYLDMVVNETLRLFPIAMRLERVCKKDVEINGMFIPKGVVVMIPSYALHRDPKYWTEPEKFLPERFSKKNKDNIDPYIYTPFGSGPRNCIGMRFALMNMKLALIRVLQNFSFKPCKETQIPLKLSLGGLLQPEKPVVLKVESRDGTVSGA
Description: as §1, §2, §3, §4

T1 sequence (P56373 whole entry): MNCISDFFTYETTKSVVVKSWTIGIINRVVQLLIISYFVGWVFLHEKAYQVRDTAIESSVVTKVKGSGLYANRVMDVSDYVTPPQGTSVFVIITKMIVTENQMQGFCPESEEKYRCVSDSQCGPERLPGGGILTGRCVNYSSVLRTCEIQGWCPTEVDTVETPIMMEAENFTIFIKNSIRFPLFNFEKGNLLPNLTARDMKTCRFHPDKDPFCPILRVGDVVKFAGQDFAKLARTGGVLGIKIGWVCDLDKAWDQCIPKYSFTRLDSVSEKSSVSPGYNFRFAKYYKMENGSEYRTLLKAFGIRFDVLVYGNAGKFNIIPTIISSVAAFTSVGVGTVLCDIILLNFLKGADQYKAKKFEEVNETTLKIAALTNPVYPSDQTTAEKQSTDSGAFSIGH

Q: With `COC(=O)[C@@H](C)Cn1c(=O)[nH]/c(=N\c2ccc(Oc3ccc(F)cn3)cc2)n(Cc2ccc(F)cc2F)c1=O` [Compound I-025] as the compound, how does the IC50 (human P2X3 receptor [1]) read?
A: The IC50 was 23 nM.

Q: Which IC50 (human P2X3 receptor [1]) does the source give for `C[C@@H](C(=O)O)[C@H](C)n1c(=O)[nH]/c(=N\c2ccc(Oc3ccnc(Cl)c3)cc2)n(Cc2ccc(Cl)cc2)c1=O` [Compound R-154] here?
A: Its IC50 is 8 nM.

Q: For `C[C@@H](Cn1c(=O)[nH]/c(=N\c2ccc(Oc3ccnc(C#N)c3)cc2)n(Cc2ccc(Cl)cc2)c1=O)C(=O)O` [Compound R-123], which IC50 (human P2X3 receptor [2]) is on record?
A: The IC50 was 18 nM.

Q: Which IC50 (human P2X3 receptor [1]) does the source give for `Cc1ccc(Cn2c(=O)n(C[C@H](C)C(=O)O)c(=O)[nH]/c2=N\c2ccc(Oc3ncc(C)s3)cc2)cc1` [Compound R-218] here?
A: The IC50 was 8 nM.

Q: Which solubility at 18 h [3] does the source give for `Cc1ccc(Cn2c(=O)n(C[C@H](C)C(=O)O)c(=O)[nH]/c2=N\c2ccc(Oc3ccc(C(F)(F)F)cn3)cc2)cc1` [Compound I-038] here?
A: The solubility at 18 h was > 50 µM.

Q: Which IC50 (Rat P2X3 receptor) does the source give for `Cc1ccc(Cn2c(=O)n(C[C@H](C)C(=O)O)c(=O)[nH]/c2=N\c2ccc(Oc3ccc(Cl)cn3)cc2)cc1` [Compound I-100] here?
A: Its IC50 is 9 nM.

Q: Which results are given for `C[C@@H](Cn1c(=O)[nH]/c(=N\c2ccc(Oc3cnc(Cl)cn3)cc2)n(Cc2ccc(Cl)cc2)c1=O)C(=O)O` [Compound R-014]?
A: IC50 (Rat P2X3 receptor): 6 nM; IC50 (CYP1A2): > 20000 nM; IC50 (CYP2C9): > 20000 nM; IC50 (CYP2C19): > 20000 nM; IC50 (CYP2D6): > 20000 nM; IC50 (CYP3A4): > 20000 nM
